From publication PMC10965189, “Phytochemical investigation on the aerial parts of Veratrum versicolor f. viride Nakai and their biological activities” (Turkish Journal of Chemistry, 2023) come the findings set out here.

For one assay, the target named is mushroom tyrosinase. Description: Tyrosinase inhibition assay. The format is biochemical. Particulars: L-tyrosine, 37 °C 20 min, three experiments, read-out: Tyrosinase inhibitory activity IC50. On the procedure:
The reaction was carried out in a 0.1 M potassium phosphate buffer (pH 6.5) containing 1.5 mM L-tyrosine and 1250 unit/mL mushroom tyrosinase and the reaction mixture was incubated at 37 °C for 20 min. The test samples were assayed for tyrosinase inhibition by measuring its effect on tyrosinase activity using an ELISA reader at 490 nm. Arbutin was used as a positive control. The inhibitory activity of the sample was expressed as the concentration that inhibits 50% of the enzyme activity (IC50).

Assay [1] has as its system B16F10 mouse melanoma cells. The experiment in a line: Measurement of relative melanin contents in α-MSH-stimulated cells. It counts as cell-based. The conditions noted are these: for activity at 25 µM / activity at 50 µM / activity at 100 µM / inhibition at 100 µM: Mus musculus, B16-F10; for activity at 25 µM / activity at 50 µM / activity at 100 µM: 100 nM α-MSH, 72 h; for activity at 100 µM / effect on melanin content compared to arbutin: 100 μM; for effect on melanin content compared to arbutin: arbutin 400 μM. On the procedure: B16F10 mouse melanoma cells were cultured in DMEM medium containing 10% FBS and 1% penicillin-streptomycin in a 37 °C incubator with 5% CO2. The cells were seeded in 100-mm tissue culture dishes to be used for subsequent experiments.
B16F10 cells (1 × 10^5/well) were seeded in 6 well plates for 24 h. The cells were then incubated in the presence of 100 nM α-MSH, and treated with various concentrations (25, 50, and 100 μM) of sample for 72 h. After being washed twice with PBS, the cells were dissolved of 1 N NaOH and 10% DMSO, incubated at 60 °C for 1 h, and mixed to solubilize the melanin. Relative melanin content was determined with an ELISA reader by absorbance at 405 nm.

The target of assay [2] is T1, PPE (porcine pancreas elastase) (Sus scrofa, UniProt P00772).
T1 construct: from tissue; host or cells: porcine pancreas
Description: Elastase inhibition assay. It counts as biochemical. How it is done: The reaction was carried out in a 50 mM Tris-HCl buffer (pH 8.5) containing 1 mg/mL N-succinyl-(Ala)3-p-nitroanilide and 0.6 U/mL PPE (porcine pancreas elastase). The test sample was added to the reaction mixture, and elastase inhibition was incubated at 25 °C for 10 min. The change in absorbance was measured at 405 nm using an ELISA reader. Ursolic acid was used as a positive control. The inhibitory activity of the sample was expressed as the concentration that inhibits 50% of the enzyme activity (IC50).

Assay [3] relates to B16F10 mouse melanoma cells. Description: Measurement of relative melanin contents in α-MSH-stimulated cells. It counts as cell-based.
The mark [4] stands for this setting: porcine pancreas elastase, N-succinyl-(Ala)3-p-nitroanilide, 25 °C 10 min, three experiments, read-out: Elastase inhibitory activity IC50.
[5] abbreviates: at a concentration of 100 μM, read-out: inhibition of melanogenesis.
Setting [6] is: in the range of 50 ~ 100 μM, α-MSH-stimulated, read-out: inhibition percentage of melanin production.

The structures appear in SMILES notation. Like-named read-outs stand apart in the source and are kept apart here.

T1 sequence (P00772 27-266): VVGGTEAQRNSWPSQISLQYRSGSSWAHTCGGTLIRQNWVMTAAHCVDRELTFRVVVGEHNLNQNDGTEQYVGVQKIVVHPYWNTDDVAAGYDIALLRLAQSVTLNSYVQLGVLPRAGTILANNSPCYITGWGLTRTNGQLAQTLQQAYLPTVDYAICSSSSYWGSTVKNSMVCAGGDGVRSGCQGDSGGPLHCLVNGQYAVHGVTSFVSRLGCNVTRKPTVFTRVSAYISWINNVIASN

As to `COc1cc(-c2cc(=O)c3c(O)cc(O)cc3o2)cc(OC)c1O` [Compound 7, Tricin], the IC50 on mushroom tyrosinase was above 100 µM. For the same compound, in assay [1], the activity at 25 µM stood at 65.2 ± 1.18%, the activity at 50 µM worked out at 65.4 ± 1.41% and the activity at 100 µM was found to be 56.4 ± 0.89%. Also, the half-inhibitory concentration (IC50) in assay [2] (setting [4]) was above 1000 µM.
`COc1cc(C(=O)O)ccc1O` [Compound 1, Vanillic acid]: in assay [1], the activity at 25 µM worked out at 91.3 ± 4.81%, the activity at 50 µM amounted to 74.78 ± 0.69% and the activity at 100 µM turned out to be 64 ± 1.45%. The IC50 in assay [2] (setting [4]) was above 1000 µM.
Consider `C[C@H]1[C@H](C)CC[C@]2(C(=O)O)CC[C@]3(C)C(=CC[C@@H]4[C@@]5(C)CC[C@H](O)C(C)(C)[C@@H]5CC[C@]43C)[C@H]12` [Ursolic acid, reference compound], for which, in assay [2] (setting [4]), the half-inhibitory concentration (IC50) is 96.9 ± 1.33 µM.
In the case of `OC[C@H]1O[C@@H](Oc2ccc(O)cc2)[C@H](O)[C@@H](O)[C@@H]1O` [Arbutin], the half-inhibitory concentration (IC50) on mushroom tyrosinase was 474 ± 18.2 µM. The activity at 400 µM in assay [3] (B16-F10, 100 nM α-MSH, 72 h) was 30.7 ± 3.34%. The inhibition at 400 µM in assay [3] (B16-F10, α-MSH-stimulated, read-out: inhibition rate of melanin production) is 69.2%.
Take `O=c1cc(-c2ccc(O)cc2)oc2cc(O)cc(O)c12` [Compound 6, Apigenin]: the half-inhibitory concentration (IC50) on mushroom tyrosinase is above 100 µM. Moreover, in assay [1], the activity at 25 µM was 83.6 ± 3.01%, the activity at 50 µM is 63.2 ± 2.11% and the activity at 100 µM came to 16.2 ± 1.52%. Besides, in assay [1] (setting [5]), the inhibition at 100 µM lay within 70.4 to 91%. Also, in assay [2] (setting [4]), the half-maximal inhibitory concentration (IC50) was above 1000 µM.
As for `OC[C@H]1O[C@@H](Oc2cc(O)cc(/C=C/c3ccc(O)cc3)c2)[C@H](O)[C@@H](O)[C@@H]1O` [Compound 2, trans-Piceid], the IC50 at mushroom tyrosinase is 51.2 ± 5.5 µM. For the same compound, in assay [1], the activity at 25 µM came to 136 ± 3.36%, the activity at 50 µM came out at 132 ± 6.52% and the activity at 100 µM was found to be 116 ± 6.39%. The IC50 in assay [2] (setting [4]) was above 1000 µM.
`Oc1cc(O)cc(/C=C/c2ccc(O)cc2O)c1` [Compound 3, Oxyresveratrol]: the IC50 on mushroom tyrosinase is 6.42 ± 0.45 µM. Also, in assay [1], the activity at 25 µM turned out to be 118 ± 3.73%, the activity at 50 µM is 109 ± 1.96% and the activity at 100 µM is 29.6 ± 2.21%. Moreover, the inhibition at 100 µM in assay [1] (setting [5]) is 70.4 to 91%. Further, in assay [2], the IC50 is above 1000 µM.
Take `COc1cc(-c2cc(=O)c3c(O)cc(O)cc3o2)ccc1O` [Compound 8, Chrysoeriol]: the “effect on melanin content compared to arbutin” value (“effect … compared to arbutin” below) in assay [1] (α-MSH-stimulated) was “greatly decreased”. Besides, in assay [1], the activity at 25 µM was 37 ± 4.57%, the activity at 50 µM turned out to be 27.3 ± 0.8% and the activity at 100 µM was 23.4 ± 2.19%. For the same compound, in assay [1] (setting [5]), the inhibition at 100 µM was 70.4 to 91%. For the same compound, in assay [1] (setting [6]), the inhibition at 100 µM was 72.6 to 76.6%.
As for `Oc1ccc(/C=C/c2cc(O)cc(O)c2)cc1` [Compound 4, Resveratrol], the IC50 at mushroom tyrosinase stood at 19.8 ± 0.77 µM. In addition, in assay [1] (α-MSH-stimulated), the “effect … compared to arbutin” value is “greatly decreased”. Also, in assay [1], the activity at 25 µM stood at 82.3 ± 1.18%, the activity at 50 µM amounted to 27.3 ± 5.83% and the activity at 100 µM was 17.3 ± 0.01%. Further, in assay [1] (setting [5]), the inhibition at 100 µM was in the range of 70.4 to 91%. Besides, in assay [1] (setting [6]), the inhibition at 100 µM fell in the range of 72.7 to 82.7%. Besides, in assay [2] (setting [4]), the IC50 was above 1000 µM.
With `O=c1cc(-c2ccc(O)c(O)c2)oc2cc(O)cc(O)c12` [Compound 5, Luteolin], the IC50 at mushroom tyrosinase worked out at 37.9 ± 1.04 µM. Further, the “effect … compared to arbutin” value in assay [1] (α-MSH-stimulated) is on record as “greatly decreased”. Also, in assay [1], the activity at 25 µM worked out at 18 ± 0.76%, the activity at 50 µM worked out at 16.4 ± 1.65% and the activity at 100 µM stood at 8.99 ± 0.73%. Further, the inhibition at 100 µM in assay [1] (setting [5]) lay within 70.4 to 91%. Further, the inhibition at 100 µM in assay [1] (setting [6]) was 83.5 to 91%. In assay [2] (setting [4]), the half-inhibitory concentration (IC50) turned out to be 292 ± 14.4 µM.

By IC50 is commonly meant the point on the concentration scale where inhibition reaches its midpoint. The inhibition is how much of the control response was suppressed.
